Assay results as given in patent publication US20250127906A1, “SMALL-MOLECULE DEGRADERS OF CDK8 AND CDK19” (University of South Carolina, priority 2021, published 2025).

Experiments:
[1] = biological target: T1, CDK8 (Homo sapiens, UniProt P49336); assay: CDK8 degradation in other human cell lines (22Rv1, MV4-11, HAP-1, HTB-185, SAOS2, SJSA-1); type: cell-based; parameters: endogenous in cells; details: 24-hr treatment
Excerpt: (§1) FIG. 5 illustrates the effects of the novel PROTACs HP8580, IA7843 and IA7886 on CDK8 and CDK19 degradation in other human cell lines, including 22Rv1 prostate cancer (expressing more CDK19 than CDK8), MV4-11 (AML) and HAP-1 (CML) leukemia cell lines, HTB-185 medulloblastoma, and SAOS2 and SJSA-1 osteosarcoma (the latter expressing only CDK19 but not CDK8).

[2] = system: RPMI 8226 cells; assay: Concentration dependence of RPMI 8226 growth inhibition; type: cell-based; details: Homo sapiens, 96 h; RPMI 8226, 4-day growth inhibition
[3] = system: CCL12; assay: CCL12 mRNA expression in CT26 tumors in Balb/c mice (QPCR); type: in vivo; details: oral gavage 20 mg/kg, 2, 8 or 24 hrs after dosing
Procedure: CT26 cells were injected subcutaneously into syngeneic Balb/c female mice and allowed to grow to 150˜200 mm^3. Tumor-bearing mice then received PROTACs IA7882 or IA7886 by oral gavage at 20 mg/kg in 30% propylene glycol/70% PEG-400 vehicle. Tumors were collected 2, 8 or 24 hrs after dosing and used to measure protein levels of CDK8, pS727 STAT1 and total STAT1 (by western blotting) and mRNA expression of CCL12, a gene that is inhibited by different CDK8/19 inhibitors in CT26 tumors in vivo (by QPCR).

[4] = system: SK-MM-2 cells; assay: SK-MM-2 multiple myeloma cell growth over 20 days continuous treatment; type: cell-based; details: BI1347 200 nM, Senexin C 1 μM, IA7886 200 nM, IA7843 1 μM
Procedure: The following CDK8/19 kinase inhibitors were tested for their effects on MM cell lines over 20 days continuous treatment: CDK8/19 kinase inhibitors BI1347 (200 nM) and Senexin C (1 μM), BI1347-derived PROTAC IA7886 (200 nM) and Senexin C-derived PROTAC IA7843 (1 μM). 1-4 million cells were treated with vehicle control (0.1% DMSO), or CDK8/19 kinase inhibitors or PROTACs for 20 days. Every 4 days, cells were counted using BioRAD TC20 Automated Cell Counter with trypan blue staining, and the same number of cells were passaged to a new T25 flask to propagate under the same treatment conditions.

[5] = biological target: T1, CDK8; assay: CDK8 degradation in RPMI 8226 cells (Western blot); type: cell-based; parameters: host or cells: RPMI 8226; details: RPMI 8226, concentrations used in FIG. 14A
[6] = Serum drug concentrations in CD-1 mice (LCMSMS); type: in vivo; details: female CD-1 mice, i.p. 15 mg/kg, 15 min and 1 hr
Procedure: For preliminary evaluation of the bioavailability of the PROTACs, IA7882 and IA7886 were administered to female CD-1 mice via intraperitoneal (i.p.) injection at the dose of 15 mg/kg. Drug concentrations were measured by LCMSMS analysis of serum samples collected at 15 min and 1 hr time point.

[7] = biological target: T2, CDK19 (Homo sapiens, UniProt Q9BWU1); assay: CDK19 degradation in HEK-293 cells (Western blot); type: cell-based; parameters: PROTACs on CDK8 and CDK19 degradation in HEK-293cells; endogenous in cells; host or cells: HEK-293; details: concentration degrading CDK19 to half of level in untreated cells
T2 sequence (Q9BWU1 whole entry): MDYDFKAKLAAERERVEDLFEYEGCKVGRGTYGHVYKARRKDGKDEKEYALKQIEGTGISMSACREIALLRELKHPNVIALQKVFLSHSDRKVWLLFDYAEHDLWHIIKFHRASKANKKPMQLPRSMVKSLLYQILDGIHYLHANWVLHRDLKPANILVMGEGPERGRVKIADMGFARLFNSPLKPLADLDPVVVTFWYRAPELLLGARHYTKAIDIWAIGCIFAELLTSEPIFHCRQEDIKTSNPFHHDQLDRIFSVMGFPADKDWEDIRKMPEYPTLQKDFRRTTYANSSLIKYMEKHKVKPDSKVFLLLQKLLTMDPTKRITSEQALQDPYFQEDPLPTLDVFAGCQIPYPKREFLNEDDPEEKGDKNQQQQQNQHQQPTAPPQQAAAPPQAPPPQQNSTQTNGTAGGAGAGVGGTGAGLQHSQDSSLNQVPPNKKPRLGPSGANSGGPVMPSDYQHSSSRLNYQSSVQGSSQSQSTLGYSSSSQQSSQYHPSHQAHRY
T2 sequence (P24863 whole entry partner): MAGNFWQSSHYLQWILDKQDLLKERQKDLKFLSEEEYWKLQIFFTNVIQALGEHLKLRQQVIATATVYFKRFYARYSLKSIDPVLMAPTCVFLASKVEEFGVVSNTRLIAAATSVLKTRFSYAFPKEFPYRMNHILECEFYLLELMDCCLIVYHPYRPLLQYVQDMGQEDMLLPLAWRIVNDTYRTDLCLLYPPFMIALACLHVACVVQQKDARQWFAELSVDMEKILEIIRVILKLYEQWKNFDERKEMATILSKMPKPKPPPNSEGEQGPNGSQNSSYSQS
Excerpt: Furthermore, the degradation of both CDK8 and CDK19 by the PROTACs is also seen to decrease the levels of their binding partner cyclin C (CCNC) (FIG. 2B, D, E), which is known to be protected from proteolytic degradation by its interaction with CDK8 (Barette et al., 2001).
FIGS. 2F and 2G show the effects of different concentrations of potent Senexin C- and BI-1347-based PROTACs on CDK8 and CDK19 degradation in HEK-293cells. Based on these assays, we calculated DC50 values that correspond to PROTAC concentrations inducing degradation of CDK8 and CDK19 to the half of protein level in untreated cells. The corresponding CDK8 DC50 values were 46 nM for IA7843, 6.6 nM for IA7882 and 2.8 nM for IA7886, and CDK19 DC50 values were 1 μM for IA7843, 25 nM for IA7882 and 10 nM for IA7886.

[8] = biological target: T2, CDK19; assay: CDK19 degradation in other human cell lines (22Rv1, MV4-11, HAP-1, HTB-185, SAOS2, SJSA-1); type: cell-based; parameters: endogenous in cells; details: 24-hr treatment
Excerpt: as §1

[9] = system: Jurkat cells; assay: Long-term growth of Jurkat cells under continuous treatment; type: cell-based, human; details: 300 nM continuous
Procedure: The anti-proliferative effects of a PROTAC and a kinase inhibitor were compared in leukemia cell lines. In the long-term treatment experiment shown in FIG. 11A, Jurkat cells (0.1 million cells) were continuously treated with vehicle control (0.1% DMSO), 300 nM BI-1347 or 300 nM IA7886 for 53 days (each condition in biological triplicates). Every 7-8 days, live cells were counted using BioRAD TC20 Automated Cell Counter with trypan blue staining: 0.1 million live cells were passaged to a new T25 flask to propagate under the same treatment conditions. The survival fraction was calculated by dividing the accumulated number of drug-treated cells with the accumulated number of vehicle-treated cells. […] This sustained inhibition property of PROTAC was also observed in MV4-11, a leukemia cell line highly sensitive to CDK8/19 kinase inhibitors.

[10] = biological target: T3, CDK8 (Canis lupus familiaris, UniProt A0A8I3PYQ8); assay: CDK8 degradation in canine Abrams osteosarcoma cells; type: cell-based
T3 construct: endogenous in cells; host or cells: Abrams (canine osteosarcoma)
T3 sequence (A0A8I3PYQ8 1-464): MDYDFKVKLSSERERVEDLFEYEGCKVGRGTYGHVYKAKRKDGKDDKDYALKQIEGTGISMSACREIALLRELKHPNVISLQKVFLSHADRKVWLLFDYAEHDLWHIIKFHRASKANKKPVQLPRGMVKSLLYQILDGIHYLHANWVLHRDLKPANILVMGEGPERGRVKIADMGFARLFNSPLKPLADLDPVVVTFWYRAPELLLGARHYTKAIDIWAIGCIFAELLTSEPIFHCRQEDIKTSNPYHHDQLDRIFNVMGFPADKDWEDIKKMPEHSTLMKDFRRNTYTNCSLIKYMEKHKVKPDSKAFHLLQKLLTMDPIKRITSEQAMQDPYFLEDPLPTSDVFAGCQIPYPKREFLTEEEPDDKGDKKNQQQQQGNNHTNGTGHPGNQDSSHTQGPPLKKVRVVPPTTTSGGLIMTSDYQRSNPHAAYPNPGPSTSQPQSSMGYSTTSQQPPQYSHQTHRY
Excerpt: Both the extent and the kinetics of CDK8 degradation were similar between two cell lines, with the degradation reaching maximum at about 8 hrs of PROTAC treatment.

T1 sequence (P49336 whole entry): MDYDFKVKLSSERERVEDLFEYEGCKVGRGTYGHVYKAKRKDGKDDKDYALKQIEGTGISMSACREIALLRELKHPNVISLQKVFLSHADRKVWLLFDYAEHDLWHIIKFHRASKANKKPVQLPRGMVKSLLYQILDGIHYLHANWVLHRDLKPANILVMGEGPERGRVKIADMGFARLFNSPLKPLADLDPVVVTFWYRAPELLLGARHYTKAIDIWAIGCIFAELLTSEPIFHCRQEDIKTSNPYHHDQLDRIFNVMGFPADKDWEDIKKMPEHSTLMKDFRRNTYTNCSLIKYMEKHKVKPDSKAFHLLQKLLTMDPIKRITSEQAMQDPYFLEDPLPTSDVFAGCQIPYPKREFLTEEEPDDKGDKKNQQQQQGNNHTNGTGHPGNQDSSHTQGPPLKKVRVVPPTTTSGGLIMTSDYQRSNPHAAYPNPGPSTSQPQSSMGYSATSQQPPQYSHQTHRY
T1 sequence (P24863 whole entry partner): as the sequence (P24863 whole entry partner) above

DC50 [7]: 10 nM
SMILES: O=C(CCCNc1cccc2c1C(=O)N(C1CCC(=O)NC1=O)C2=O)NCCCCCCCCCCC(=O)N1CCN(C(=O)Cn2cc(-c3ccc(-c4cncc5ccccc45)cc3)cn2)CC1 (centres unmarked) [IA7886, 4-[[2-(2,6-dioxo-3-piperidyl)-1,3-dioxo-isoindolin-4-yl]amino]-N-[11-[4-[2-[4-[4-(4-isoquinolyl)phenyl]pyrazol-1-yl]acetyl]piperazin-1-yl]-11-oxo-undecyl]butanamide]
CDK8 degradation (in words) [1]: significantly degraded CDK8 and CDK19 in all the tested cell lines
IC50 [2]: 24 nM
levels of CCL12 mRNA in tumors [3]: decreased in tumors treated with IA7882 or IA7886 2 hrs or 8 hrs (but not 24 hrs) after dosing
growth inhibition over 20 days, order of efficacy [4]: BI1347<IA7886<Senexin C<IA7843
CDK8 degradation (in words) [5]: efficiently degraded CDK8 in RPMI 8226 cells
serum drug concentrations [6]: readily measurable and were higher for IA7882 than for IA7886
CDK19 degradation (in words) [8]: significantly degraded CDK8 and CDK19 in all the tested cell lines
growth inhibition, first two passages (14 days) [9]: had a stronger growth inhibition effect than the PROTAC IA7886
growth rates in later passages ([9]; up to 53 days): growth rates of IA-7886 treated cells were decreasing
CDK8 degradation (in words) [10]: induce CDK8 degradation in both cell lines
